What all share (assay): growth of human tumour cells (NCI), 48 h
For test [1], the system named is BT-549 breast.
Test [2] concerns HCC-2998 colon.
The subject of test [3] is HCT-116 colon.
The subject of test [4] is NCI-H460 lung.
Test [5] relates to SK-MEL-2 melanoma.
For test [6], the system named is SK-OV-3 ovarian.
The subject of test [7] is SN12C renal.
Test [8] concerns T-47D breast.
Test [9] relates to UACC-257 melanoma.
The subject of test [10] is HL-60(TB) leukemia.

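Dose response: 5 concentrations. Exposure: 48 h. Format: 96-well plates. Endpoint: linear interpolation; highest concentration if not reached. TGI: concentration producing complete growth inhibition.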

As for `O=C1/C(=C/c2cccc(Br)c2)CSC/C1=C\c1cccc(Br)c1`, the TGI in test [1] is 4.47 µM; in test [2], 3.3 µM; in test [3] it was 4.33 µM; in test [4] it was 7.26 µM; in test [5], 12 µM; in [6], 42 µM. Also, the TGI in test [7] is 5.22 µM; in test [8], 21.1 µM; in test [9], 5.9 µM.

Consider `COCOc1c(C(O[Si](C)(C)C(C)(C)C)c2cnc(Sc3ccccc3)n2C)ccc(OC)c1OC` (configuration not stated), for which the TGI came to 4.02 µM in [1]; 3.7 µM in test [2]; 2.95 µM in test [3]; 3.02 µM in [4]; 3.05 µM in test [5]; 7.74 µM in test [6]. Further, the TGI in test [7] was 3.31 µM; in test [8] it was > 100 µM; in [9], 4.6 µM.

In the case of `O=c1[nH]c(Nc2cc(Cl)cc(Cl)c2)nc2nc[nH]c12`, the TGI in test [1], in [2], in test [3], in test [4], in [5] and in [6] was > 75 µM throughout. Also, the TGI in test [7], in test [8] and in test [9] was > 75 µM in each case.

As for `O=C(O)c1cn2c3c(cc(N4CCN(CCO)CC4)cc3c1=O)SCC2`, the TGI in test [2] is 93.3 µM; in test [3], > 100 µM; in [10], > 100 µM; in test [4], > 100 µM; in [5] it was > 100 µM; in test [6], > 100 µM. The TGI in test [7] and in test [9] was > 100 µM each time.

Regarding `CCOC(=O)NC(NC1=NCCS1)(C(=O)OCC)C(F)(F)F` (configuration not stated), the TGI in test [2], in test [3], in test [10], in test [4], in test [5] and in test [6] was > 100 µM throughout. For the same compound, the TGI in [7], in [8] and in [9] was > 100 µM in each case.

Take `CCCCNC(=S)Nc1nc(C(=O)NNC(=S)NC2CCCCC2)cs1`: the TGI in test [1], in test [2], in [3], in test [5], in test [6] and in test [7] was > 100 µM each time. In addition, the TGI in test [8] and in test [9] was > 100 µM in each case.

Take `CN1C(=O)[C@@H]2[C@@H]3c4ccccc4N(S(=O)(=O)C(F)(F)F)[C@@H]3c3[nH]c4ccccc4c3[C@@H]2C1=O`: the TGI in test [1], in test [2], in test [3], in test [4], in [5] and in [6] was > 100 µM throughout. The TGI in test [7] and in [9] was > 100 µM throughout.

Regarding `CSCCCNC(=O)c1csc(-c2csc(C(CNC(=O)OC(C)(C)C)CNC(=O)OC(C)(C)C)n2)n1`, the TGI is > 100 µM in test [1]; > 100 µM in test [3]; > 100 µM in [4]; 73.7 µM in test [5]; > 100 µM in test [6]; > 100 µM in [7]. The TGI in [8] and in [9] was > 100 µM each time.

For the compound `O=C(/C=C/c1ccc(O)c(O)c1)c1cc(O)cc(O)c1`, the TGI in test [1] worked out at 24.7 µM; in test [3], 25.6 µM; in test [5], 28.2 µM; in test [6] it was 42.9 µM; in test [7] it was 26.2 µM; in [8], 29.3 µM. Besides, in [9], the TGI turned out to be 23 µM.

For `CCOC(=O)C1OC(C2(C)OC3(OC4(C=CC3O)OC(C(C)C(=O)C(C)C(O)C(C)CC(C)c3c(Cl)cc(C)c(O)c3C(=O)O)C(C)CC4C)C(C)C2OC)CC1O` (configuration not stated), the TGI in test [1] was 17.2 µM; in [2], 0.264 µM; in [3], 3.75 µM; in [10] it was 4.66 µM; in test [4] it was 0.714 µM; in test [5], 1.13 µM. The figures for the TGI in [6], in test [7] and in [9] were 3.26 µM, 4.84 µM and 8.54 µM, respectively.

`N#CCCN(CCC#N)c1ccc(/C=C2\N=C(c3ccccc3)N(NC(N)=S)C2=O)cc1`: the TGI in test [1], in test [3], in test [10], in test [4], in test [5] and in test [6] was > 100 µM in each case. For the same compound, the TGI in [7], in [8] and in test [9] was > 100 µM in each case.

Consider `Nc1nc(N)c2ncn(Cc3ccccc3CCl)c2n1`, for which the TGI in test [1], in test [3], in test [10], in test [4], in test [5] and in [6] was > 100 µM in each case. Further, the TGI in test [7], in [8] and in [9] was > 100 µM in each case.

As for `Cn1/c(=N\S(=O)(=O)c2ccccc2)n(S(=O)(=O)c2ccccc2)c2ccccc21`, the TGI was > 100 µM in [1]; > 100 µM in test [3]; 7.16 µM in test [10]; > 100 µM in test [5]; > 100 µM in test [6]; > 100 µM in test [7]. The TGI in test [8] and in [9] was > 100 µM throughout.

On to `CC(C)(C)c1cc(C2=NN(c3ccccc3)C(c3ccccc3)C2)cc(C(C)(C)C)c1O` (configuration not stated), for which the TGI in test [1], in test [3], in [10], in test [4], in [5] and in test [6] was > 100 µM throughout. In addition, the TGI in [7], in test [8] and in [9] was > 100 µM each time.

Consider `Cc1ccc(O)c(-c2cc(-c3cccc(Cl)c3)c(C#N)c(N)n2)c1`, for which the TGI was > 100 µM in [1]; 30.1 µM in test [3]; 68.6 µM in [10]; 54 µM in [4]; 31.6 µM in [5]; 66.2 µM in test [6]. In addition, the TGI in [7] is 47.6 µM; in test [8], > 100 µM.

For the origin of these results see PubChem BioAssay (NCI).
